# Assay results: patent publication US20070292908A1, “Method for Detecting Streptococcus Agalactiae Using Alpha-Glucosidase Activity” (BIOMERIEUX, priority 2004, published 2007)
# Legend:
# Streptococcus agalactiae [1] = experiment: Number of strains detected as a function of the concentration of α-glucosidase substrate; assay type: cell-based; conditions: positive when I≧0.6, 8 strains
# Text: The above protocol was repeated, with the exception that the concentration of enzymatic substrate was varied.
# Table 2 below gives the number of strains detected (considered to be positive when I≧0.6) as a function of the concentration of substrate.
# Streptococcus agalactiae [2] = experiment: Detection of Streptococcus agalactiae strains on reaction media containing an α-glucosidase enzymatic substrate; assay type: cell-based; conditions: substrate 0.1 g/l; for intensity (I) of coloration: arbitrary scale 0 to 4
# Method: The reaction media were prepared by mixing heart-brain extract (4.84 g/l; Solabia), meat infusion (1.96 g/l; Solabia), biothione (1 g/l; Solabia), biotrypcase (7.2 g/l; Solabia), sodium carbonate (0.3 g/l; VWR), sodium pyruvate (2 g/l; Fluka), HEPES buffer (0.4 g/l; Sigma), lactalbumin peptone (2 g/l; DMV), glucose (1 g/l; Merck), American agar (2 g/l; Sobigel) and European agar (12 g/l; Roko).
# The media were then poured into a Petri dish for subsequent inoculation with bacterial strains.
# Eight Streptococcus agalactiae strains derived from the applicant's collection, suspended in physiological saline, were inoculated so as to give isolated colonies on each of the media. The dishes were then incubated at 37° C. for 48 hours. The colonies formed are examined visually after 18, 24 and more than 40 hours of incubation. The coloration of these colonies, the growth and also the intensity of this coloration were noted.
# The results are given in table 1 below and are expressed: • in terms of growth (G) with the size being indicated in mm, • in terms of intensity (1) of coloration based on an arbitrary scale ranging from 0 to 4, 0 corresponding to an absence of activity and 4 corresponding to the presence of a very intense coloration, • in terms of color (Co) with T=turquoise, R=pink or red, Gr=green, Mg=magenta, • according to the incubation time in hours (T).
# [3] = substrate 100 mg/l, incubation 24 h
# [4] = substrate 100 mg/l, incubation 48 h
# [5] = substrate 200 mg/l, incubation 24 h
# [6] = substrate 200 mg/l, incubation 48 h
# [7] = substrate 300 mg/l, incubation 24 h
# [8] = substrate 300 mg/l, incubation 48 h
# [9] = strain 0008200, 18 h incubation
# [10] = strain 0008200, 24 h incubation
# [11] = strain 0008200, >40 h incubation
# [12] = strain 0008206, 18 h incubation
# [13] = strain 0008206, 24 h incubation
# [14] = strain 0008206, >40 h incubation
# [15] = strain 0101060, 18 h incubation
# [16] = strain 0101060, 24 h incubation
# [17] = strain 0101060, >40 h incubation
# [18] = strain 7611003, 18 h incubation
# [19] = strain 7611003, 24 h incubation
# [20] = strain 7611003, >40 h incubation
# [21] = strain 7701031, 18 h incubation
# [22] = strain 7701031, 24 h incubation
# [23] = strain 7701031, >40 h incubation
# [24] = strain 7702055, 18 h incubation
# [25] = strain 7702055, 24 h incubation
# [26] = strain 7702055, >40 h incubation
# [27] = strain 8709013, 18 h incubation
# [28] = strain 8709013, 24 h incubation
# [29] = strain 8709013, >40 h incubation
# [30] = strain 8904053, 18 h incubation
# [31] = strain 8904053, 24 h incubation
# [32] = strain 8904053, >40 h incubation
molecule,measurement,setting,value
"OC[C@H]1O[C@H](Oc2c[nH]c3cc(Cl)ccc23)[C@H](O)[C@@H](O)[C@@H]1O [Rose-alpha-Glu, 6-chloro-3-indolyl-α-D-glucopyranoside]",number of strains detected,Streptococcus agalactiae [1]; [3],1/8
same,number of strains detected,Streptococcus agalactiae [1]; [4],7/8
same,number of strains detected,Streptococcus agalactiae [1]; [5],3/8
same,number of strains detected,Streptococcus agalactiae [1]; [6],8/8
same,number of strains detected,Streptococcus agalactiae [1]; [7],6/8
same,number of strains detected,Streptococcus agalactiae [1]; [8],8/8
same,intensity (I) of coloration,"Streptococcus agalactiae [2]; strain 0008200, 18 h",0.1
same,"growth (G), size",Streptococcus agalactiae [2]; [9],0.5 mm
same,intensity (I) of coloration,"Streptococcus agalactiae [2]; strain 0008200, 24 h",0.3
same,"growth (G), size",Streptococcus agalactiae [2]; [10],0.5 mm
same,intensity (I) of coloration,"Streptococcus agalactiae [2]; strain 0008200, >40 h",0.5
same,"growth (G), size",Streptococcus agalactiae [2]; [11],0.5 mm
same,intensity (I) of coloration,"Streptococcus agalactiae [2]; strain 0008206, 18 h",0.1
same,"growth (G), size",Streptococcus agalactiae [2]; [12],0.7 mm
same,intensity (I) of coloration,"Streptococcus agalactiae [2]; strain 0008206, 24 h",0.3
same,"growth (G), size",Streptococcus agalactiae [2]; [13],0.8 mm
same,intensity (I) of coloration,"Streptococcus agalactiae [2]; strain 0008206, >40 h",0.8
same,"growth (G), size",Streptococcus agalactiae [2]; [14],1.2 mm
same,intensity (I) of coloration,"Streptococcus agalactiae [2]; strain 0101060, 18 h",0.3
same,"growth (G), size",Streptococcus agalactiae [2]; [15],0.5 mm
same,intensity (I) of coloration,"Streptococcus agalactiae [2]; strain 0101060, 24 h",0.6
same,"growth (G), size",Streptococcus agalactiae [2]; [16],0.7 mm
same,intensity (I) of coloration,"Streptococcus agalactiae [2]; strain 0101060, >40 h",2.3
same,"growth (G), size",Streptococcus agalactiae [2]; [17],0.8 mm
same,intensity (I) of coloration,"Streptococcus agalactiae [2]; strain 7611003, 18 h",0.3
same,"growth (G), size",Streptococcus agalactiae [2]; [18],1 mm
same,intensity (I) of coloration,"Streptococcus agalactiae [2]; strain 7611003, 24 h",0.6
same,"growth (G), size",Streptococcus agalactiae [2]; [19],1.3 mm
same,intensity (I) of coloration,"Streptococcus agalactiae [2]; strain 7611003, >40 h",1.3
same,"growth (G), size",Streptococcus agalactiae [2]; [20],1.7 mm
same,"growth (G), size",Streptococcus agalactiae [2]; [21],0.5 mm
same,"growth (G), size",Streptococcus agalactiae [2]; [22],0.7 mm
same,intensity (I) of coloration,"Streptococcus agalactiae [2]; strain 7701031, >40 h",0.5
same,"growth (G), size",Streptococcus agalactiae [2]; [23],1.2 mm
same,intensity (I) of coloration,"Streptococcus agalactiae [2]; strain 7702055, 18 h",0.1
same,"growth (G), size",Streptococcus agalactiae [2]; [24],0.7 mm
same,intensity (I) of coloration,"Streptococcus agalactiae [2]; strain 7702055, 24 h",0.1
same,"growth (G), size",Streptococcus agalactiae [2]; [25],1 mm
same,intensity (I) of coloration,"Streptococcus agalactiae [2]; strain 7702055, >40 h",1
same,"growth (G), size",Streptococcus agalactiae [2]; [26],1.7 mm
same,"growth (G), size",Streptococcus agalactiae [2]; [27],0.4 mm
same,"growth (G), size",Streptococcus agalactiae [2]; [28],0.5 mm
same,intensity (I) of coloration,"Streptococcus agalactiae [2]; strain 8709013, >40 h",0.5
same,"growth (G), size",Streptococcus agalactiae [2]; [29],0.7 mm
same,intensity (I) of coloration,"Streptococcus agalactiae [2]; strain 8904053, 18 h",0.1
same,"growth (G), size",Streptococcus agalactiae [2]; [30],0.7 mm
same,intensity (I) of coloration,"Streptococcus agalactiae [2]; strain 8904053, 24 h",0.3
same,"growth (G), size",Streptococcus agalactiae [2]; [31],0.7 mm
same,intensity (I) of coloration,"Streptococcus agalactiae [2]; strain 8904053, >40 h",1
same,"growth (G), size",Streptococcus agalactiae [2]; [32],0.8 mm
5-bromo-4-chloro-3-indolyl-α-D-glucopyranoside [X-alpha-Glu],number of strains detected,Streptococcus agalactiae [1]; [3],3/8
same,number of strains detected,Streptococcus agalactiae [1]; [4],7/8
same,number of strains detected,Streptococcus agalactiae [1]; [5],7/8
same,number of strains detected,Streptococcus agalactiae [1]; [6],7/8
same,number of strains detected,Streptococcus agalactiae [1]; [7],7/8
same,number of strains detected,Streptococcus agalactiae [1]; [8],7/8
same,intensity (I) of coloration,"Streptococcus agalactiae [2]; strain 0008200, 18 h",0.3
same,"growth (G), size",Streptococcus agalactiae [2]; [9],0.7 mm
same,intensity (I) of coloration,"Streptococcus agalactiae [2]; strain 0008200, 24 h",0.6
same,"growth (G), size",Streptococcus agalactiae [2]; [10],0.7 mm
same,intensity (I) of coloration,"Streptococcus agalactiae [2]; strain 0008200, >40 h",2.3
same,"growth (G), size",Streptococcus agalactiae [2]; [11],0.8 mm
same,intensity (I) of coloration,"Streptococcus agalactiae [2]; strain 0008206, 18 h",0.3
same,"growth (G), size",Streptococcus agalactiae [2]; [12],0.7 mm
same,intensity (I) of coloration,"Streptococcus agalactiae [2]; strain 0008206, 24 h",1
same,"growth (G), size",Streptococcus agalactiae [2]; [13],0.7 mm
same,intensity (I) of coloration,"Streptococcus agalactiae [2]; strain 0008206, >40 h",2
same,"growth (G), size",Streptococcus agalactiae [2]; [14],0.8 mm
same,intensity (I) of coloration,"Streptococcus agalactiae [2]; strain 0101060, 18 h",2.7
same,"growth (G), size",Streptococcus agalactiae [2]; [15],0.4 mm
same,intensity (I) of coloration,"Streptococcus agalactiae [2]; strain 0101060, 24 h",3
same,"growth (G), size",Streptococcus agalactiae [2]; [16],0.5 mm
same,intensity (I) of coloration,"Streptococcus agalactiae [2]; strain 0101060, >40 h",4
same,"growth (G), size",Streptococcus agalactiae [2]; [17],0.7 mm
same,intensity (I) of coloration,"Streptococcus agalactiae [2]; strain 7611003, 18 h",2.3
same,"growth (G), size",Streptococcus agalactiae [2]; [18],1 mm
same,intensity (I) of coloration,"Streptococcus agalactiae [2]; strain 7611003, 24 h",2.7
same,"growth (G), size",Streptococcus agalactiae [2]; [19],1.2 mm
same,intensity (I) of coloration,"Streptococcus agalactiae [2]; strain 7611003, >40 h",3
same,"growth (G), size",Streptococcus agalactiae [2]; [20],1.5 mm
same,"growth (G), size",Streptococcus agalactiae [2]; [21],0.5 mm
same,"growth (G), size",Streptococcus agalactiae [2]; [22],0.7 mm
same,"growth (G), size",Streptococcus agalactiae [2]; [23],1.2 mm
same,intensity (I) of coloration,"Streptococcus agalactiae [2]; strain 7702055, 18 h",0.5
same,"growth (G), size",Streptococcus agalactiae [2]; [24],0.7 mm
same,intensity (I) of coloration,"Streptococcus agalactiae [2]; strain 7702055, 24 h",1
same,"growth (G), size",Streptococcus agalactiae [2]; [25],1 mm
same,intensity (I) of coloration,"Streptococcus agalactiae [2]; strain 7702055, >40 h",3
same,"growth (G), size",Streptococcus agalactiae [2]; [26],1.7 mm
same,intensity (I) of coloration,"Streptococcus agalactiae [2]; strain 8709013, 18 h",0.1
same,"growth (G), size",Streptococcus agalactiae [2]; [27],0.4 mm
same,intensity (I) of coloration,"Streptococcus agalactiae [2]; strain 8709013, 24 h",0.6
same,"growth (G), size",Streptococcus agalactiae [2]; [28],0.5 mm
same,intensity (I) of coloration,"Streptococcus agalactiae [2]; strain 8709013, >40 h",2
same,"growth (G), size",Streptococcus agalactiae [2]; [29],0.7 mm
same,intensity (I) of coloration,"Streptococcus agalactiae [2]; strain 8904053, 18 h",0.3
same,"growth (G), size",Streptococcus agalactiae [2]; [30],0.7 mm
same,intensity (I) of coloration,"Streptococcus agalactiae [2]; strain 8904053, 24 h",0.6
same,"growth (G), size",Streptococcus agalactiae [2]; [31],0.7 mm
same,intensity (I) of coloration,"Streptococcus agalactiae [2]; strain 8904053, >40 h",2.3
same,"growth (G), size",Streptococcus agalactiae [2]; [32],0.8 mm
